Data as given in US8114867B2, “Oxazolidinone antibiotic derivatives” (Actelion Pharmaceuticals Ltd, priority 2007, dated 2012).
≈ marks a conversion by molar mass, not a printed value.

System: S. aureus 29213
Assay: MIC by broth microdilution (NCCLS), S. aureus 29213
Assay type: cell-based
Conditions: Staphylococcus aureus, strain S. aureus 29213, cation-adjusted Mueller-Hinton Broth, pH 7.2-7.3
Protocol: These assays have been performed following the description given in “Methods for dilution Antimicrobial Susceptibility Tests for Bacteria that Grow Aerobically, 4th ed.; Approved standard: NCCLS Document M7-A4; National Committee for Clinical Laboratory Standards: Villanova, Pa., USA, 1997”. Minimal inhibitory concentrations (MICs; mg/l) were determined in cation-adjusted Mueller-Hinton Broth (BBL) by a microdilution method following NCCLS guidelines (National Committee for Clinical Laboratory Standards. Methods for Dilution Antimicrobial Susceptibility). The pH of the test medium was 7.2-7.3.

Compound	MIC [µg/mL]
COc1ccc2nccc(CC(N)CNC[C@@H]3CN(c4ccc5c(c4)NC(=O)CS5)C(=O)O3)c2n1 (mixture of isomers) [Example 89, 6-((R)-5-{[(2RS)-2-amino-3-(6-methoxy-[1,5]naphthyridin-4-yl)-propylamino]-methyl}-2-oxo-oxazolidin-3-yl)-4H-benzo[1,4]thiazin-3-one]	0.125
COc1cnc2cccc(CN(C)C(=O)CCC3CN(c4ccc5c(c4)OCCO5)C(=O)O3)c2n1 (racemic) [Example 110, rac-3-[3-(2,3-dihydro-benzo[1,4]dioxin-6-yl)-2-oxo-oxazolidin-5-yl]-N-(3-methoxy-quinoxalin-5-ylmethyl)-N-methyl-propionamide]	≤ 0.063
COc1cnc2cccc(/C=C/C(=O)NC[C@@H]3CN(c4ccc5c(c4)OCCO5)C(=O)O3)c2n1 [Example 5, (E)-N-[(R)-3-(2,3-dihydro-benzo[1,4]dioxin-6-yl)-2-oxo-oxazolidin-5-ylmethyl]-3-(3-methoxy-quinoxalin-5-yl)-acrylamide]	≤ 0.063
COc1cc2ccccc2c(CNCCCC2CN(c3ccc4c(c3)NC(=O)CS4)C(=O)O2)c1OC (racemic) [Example 168, rac-6-(5-{3-[(2,3-dimethoxy-naphthalen-1-ylmethyl)-amino]-propyl}-2-oxo-oxazolidin-3-yl)-4H-benzo[1,4]thiazin-3-one]	≤ 0.063
COc1ccc2nccc(NCCNC[C@@H]3CN(c4ccc5c(c4)NC(=O)CS5)C(=O)O3)c2n1 [Example 201, 6-((R)-5-{[2-(6-methoxy-[1,5]naphthyridin-4-ylamino)-ethylamino]-methyl}-2-oxo-oxazolidin-3-yl)-4H-benzo[1,4]thiazin-3-one]	≤ 0.063
COc1ccc2nccc(NC(=O)CNC[C@@H]3CN(c4ccc5c(c4)NC(=O)CS5)C(=O)O3)c2n1 [Example 91, N-(6-methoxy-[1,5]naphthyridin-4-yl)-2-{[(R)-2-oxo-3-(3-oxo-3,4-dihydro-2H-benzo[1,4]thiazin-6-yl)-oxazolidin-5-ylmethyl]-amino}-acetamide]	≤ 0.063
COc1cnc2cccc([C@@H](O)CNCC[C@@H]3CN(c4ccc5c(c4)OCCO5)C(=O)O3)c2n1 (relative stereo) [Example 92, (R*)-3-(2,3-dihydro-benzo[1,4]dioxin-6-yl)-5-{2-[(R*)-2-hydroxy-2-(3-methoxy-quinoxalin-5-yl)-ethylamino]-ethyl}-oxazolidin-2-one]	0.125 (≈ 0.268 µM)
COc1ccc2ncc(F)c(CNC[C@H](O)[C@@H](O)[C@@H]3CN(c4ccc5c(c4)OCCO5)C(=O)O3)c2c1 [Example 181, (S)-3-(2,3-dihydro-benzo[1,4]dioxin-6-yl)-5-{(1R,2S)-3-[(3-fluoro-6-methoxy-quinolin-4-ylmethyl)-amino]-1,2-dihydroxy-propyl}-oxazolidin-2-one]	≤ 0.063
COc1cnc2cccc(C(O)CN(C)C[C@@H](O)[C@H]3CN(c4ccc5c(c4)OCCO5)C(=O)O3)c2n1 (relative stereo) [Example 100, (R*)-3-(2,3-dihydro-benzo[1,4]dioxin-6-yl)-(R*)-5-(1-hydroxy-2-{[(RS)-2-hydroxy-2-(3-methoxy-quinoxalin-5-yl)-ethyl]-methyl-amino}-ethyl)-oxazolidin-2-one]	≤ 0.063
COc1ccc2c(OC)ccc(CNCCCC3CN(c4ccc5c(c4)NC(=O)CS5)C(=O)O3)c2c1 (racemic) [Example 169, rac-6-(5-{3-[(4,7-dimethoxy-naphthalen-1-ylmethyl)-amino]-propyl}-2-oxo-oxazolidin-3-yl)-4H-benzo[1,4]thiazin-3-one]	≤ 0.063
COc1ccc2nccc(COCCCC3CN(c4ccc5c(c4)OCCO5)C(=O)O3)c2c1 (racemic) [Example 120, rac-3-(2,3-dihydro-benzo[1,4]dioxin-6-yl)-5-[3-(6-methoxy-quinolin-4-ylmethoxy)-propyl]-oxazolidin-2-one]	0.125 (≈ 0.277 µM)

Same assay, conditions: strain S. aureus 29213, cation-adjusted Mueller-Hinton Broth, pH 7.2-7.3

Compound	MIC S. aureus 29213 [µg/mL]
6-((RS)-5-{[(2R,3R)-2,3-dihydroxy-3-(6-methoxy-[1,5]naphthyridin-4-yl)-propylamino]-methyl}-2-oxo-oxazolidin-3-yl)-4H-benzo[1,4]thiazin-3-one and 6-((RS)-5-{[(2S,3S)-2,3-dihydroxy-3-(6-methoxy-[1,5]naphthyridin-4-yl)-propylamino]-methyl}-2-oxo-oxazolidin-3-yl)-4H-benzo[1,4]thiazin-3-one [Example 52]	0.25
